Where two headings read alike, the source gives them in different places.
Assays:
eqBuChE = biological target: T1, eqBuChE (Equus caballus, UniProt P81908); test: In vitro inhibition of eqBuChE (Ellman method); format: biochemical, equine; conditions: for inhibition at 10 µM: read-out: eqBuChE Inhibition (%)
T1 construct: eqBuChE (from equine serum); purchased Sigma-Aldrich (St. Louis, MO, USA); host or cells: equine serum
Method: (§1) The in vitro inhibitory activities of test compounds against AChE and BuChE were determined by the spectrophotometric method of Ellman[25]. […] For each assay, 160 μL of 1.5 mM DTNB, 50 μL of AChE (0.22 U/mL for eeAChE; 0.05 U/mL for hAChE) or eqBuChE (0.12 U/mL) were incubated with 10 μL of different concentrations of test compounds at 37 °C for 6 min.

in vitro = conditions: PAMPA
Method: (§2) Afterwards, the acceptor filter plate was carefully placed on the donor plate to make the coated membrane touch both donor solution and acceptor buffer. […] Pe was calculated by the following expression: Pe = {−VdVa/[(Vd + Va)At]}ln (1-drugacceptor/drugequilibrium), where Vd is the volume of donor well, Va is volume in acceptor well, A is the filter area, t is the permeation time, drugacceptor is the absorbance obtained in the acceptor well and drugequilibrium is the theoretical equilibrium absorbance. Each compound was analysed at five wavelengths in four wells at least three independent runs, and the results were expressed as mean ± SD.

eeAChE = biological target: T2, eeAChE (Electrophorus electricus, UniProt O42275); test: In vitro inhibition of eeAChE (Ellman method); format: biochemical, electric eel; conditions: for inhibition at 10 µM: read-out: eeAChE Inhibition (%), inhibitor at 10 μM
T2 construct: eeAChE (from electric eel); purchased Sigma-Aldrich (St. Louis, MO, USA); host or cells: electric eel
T2 sequence (O42275 24-633): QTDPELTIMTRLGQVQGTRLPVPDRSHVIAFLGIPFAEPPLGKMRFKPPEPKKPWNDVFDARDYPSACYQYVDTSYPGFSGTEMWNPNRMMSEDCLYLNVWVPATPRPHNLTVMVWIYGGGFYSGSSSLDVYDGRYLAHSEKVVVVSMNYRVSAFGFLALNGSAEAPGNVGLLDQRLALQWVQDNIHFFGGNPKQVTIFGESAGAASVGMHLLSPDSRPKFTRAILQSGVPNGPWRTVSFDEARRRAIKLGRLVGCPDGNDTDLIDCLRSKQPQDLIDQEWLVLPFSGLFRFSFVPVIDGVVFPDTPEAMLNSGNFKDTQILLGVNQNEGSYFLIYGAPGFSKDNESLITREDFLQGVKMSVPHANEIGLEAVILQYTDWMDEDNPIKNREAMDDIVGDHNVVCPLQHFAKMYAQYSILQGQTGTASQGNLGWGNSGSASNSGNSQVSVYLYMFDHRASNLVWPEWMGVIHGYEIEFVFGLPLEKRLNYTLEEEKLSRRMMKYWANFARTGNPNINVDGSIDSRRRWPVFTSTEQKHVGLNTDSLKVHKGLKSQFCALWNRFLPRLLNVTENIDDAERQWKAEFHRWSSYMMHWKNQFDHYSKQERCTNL
Method: as §1

[1] = from PAMPA-BBB Pe
Method: as §2

hAChE = hAChE (Homo sapiens, UniProt P22303); test: In vitro inhibition of hAChE (Ellman method); format: biochemical; set-up: Acetylcholinesterase (AChE, from electric eel and human erythrocytes); purchased Sigma-Aldrich (St. Louis, MO, USA); host or cells: human erythrocytes
Sequence of hAChE (P22303 32-617 isoform P22303-2 limits assumed): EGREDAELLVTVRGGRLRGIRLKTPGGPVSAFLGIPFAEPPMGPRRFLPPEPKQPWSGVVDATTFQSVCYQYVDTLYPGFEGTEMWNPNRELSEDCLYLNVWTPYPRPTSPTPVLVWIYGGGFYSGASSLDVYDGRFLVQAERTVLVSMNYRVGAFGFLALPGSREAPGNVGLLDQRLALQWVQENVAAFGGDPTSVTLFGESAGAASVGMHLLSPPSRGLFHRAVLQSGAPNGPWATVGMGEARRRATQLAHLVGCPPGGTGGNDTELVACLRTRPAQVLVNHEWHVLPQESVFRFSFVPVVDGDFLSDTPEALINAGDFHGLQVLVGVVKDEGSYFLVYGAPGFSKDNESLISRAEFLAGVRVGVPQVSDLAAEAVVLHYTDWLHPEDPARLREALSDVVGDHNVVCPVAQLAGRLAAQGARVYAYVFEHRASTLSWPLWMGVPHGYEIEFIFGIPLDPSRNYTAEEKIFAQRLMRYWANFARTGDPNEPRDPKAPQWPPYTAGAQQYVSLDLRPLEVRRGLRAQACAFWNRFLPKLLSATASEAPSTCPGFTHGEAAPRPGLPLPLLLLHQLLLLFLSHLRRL
Method: as §1

[2] = biological target: T3, self-induced Aβ1-42 aggregation (Homo sapiens, UniProt P05067); test: Inhibition of self-induced Aβ1-42 aggregation (ThT assay); format: biochemical; conditions: read-out: Inhibition of Aβ1–42 aggregation (%) Self-induced
T3 construct: Aβ1-42 was obtained from Royobiotech Co., Ltd (Shanghai, China); purchased Royobiotech Co., Ltd (Shanghai, China)
T3 sequence (P05067 672-713): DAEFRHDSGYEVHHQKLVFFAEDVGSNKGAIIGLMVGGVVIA
Method: The inhibitory activities of compounds 4c-f and 9a-b on self-induced Aβ1-42 aggregation were also measured by the ThT assay. HFIP and ThT were purchased from TCI (Shanghai) Development. Aβ1-42 was obtained from Royobiotech Co., Ltd (Shanghai, China). The monomeric Aβ1-42 samples were prepared by HFIP and diluted with a 50 mM phosphate buffer (pH 7.4) to give a 25 μM solution. The test compound was dissolved in DMSO (250 μM) for storage and needed not to be diluted prior to use. […]. Then, 200 μL of 5 μM ThT in 50 mM glycine-NaOH buffer (pH 8.0) was added, and the percent inhibition was calculated by the method same as that of AChE-induced Aβ1–42 experiment.

[3] = biological target: T4, AChE-induced Aβ1-42 aggregation (Electrophorus electricus, UniProt O42275); test: Inhibition of AChE-induced Aβ1-42 aggregation (ThT assay); format: biochemical; conditions: inhibitor 100 μM; thioflavin-T fluorescence
T4 construct: eeAChE (from electric eel); purchased eeAChE: Sigma-Aldrich (St. Louis, MO, USA); Aβ1-42: Royobiotech Co., Ltd (Shanghai, China)
T4 sequence (O42275 24-633): as the sequence (O42275 24-633) above
Method: 1, 1, 1, 3, 3, 3-hexafluoro-2-propanol (HFIP) and Thioflavin T (ThT) were obtained from TCI (Shanghai) Development. β-Amyloid1-42 (Aβ1-42), supplied as trifluoroacetate salt, and eeAChE were purchased from Royobiotech Co., Ltd (Shanghai, China) and Sigma-Aldrich (St. Louis, MO, USA), respectively. For co-incubation experiments, aliquots of Aβ1-42 peptide and AChE in presence or absence of the test compounds were incubated for 48 h at 37 °C. […] The percent inhibition of the AChE-induced Aβ aggregation due to the presence of inhibitor was calculated by the following formula: 100 – (IFi/IFo*100), where IFi and IFo are the fluorescence intensities obtained for Aβ1-42 aggregation in the presence and in the absence of inhibitor, respectively. Each assay was run in triplicate and each reaction was repeated at least three independent times.

[4] = means ± SD of three experiments

T1 sequence (P81908 whole entry): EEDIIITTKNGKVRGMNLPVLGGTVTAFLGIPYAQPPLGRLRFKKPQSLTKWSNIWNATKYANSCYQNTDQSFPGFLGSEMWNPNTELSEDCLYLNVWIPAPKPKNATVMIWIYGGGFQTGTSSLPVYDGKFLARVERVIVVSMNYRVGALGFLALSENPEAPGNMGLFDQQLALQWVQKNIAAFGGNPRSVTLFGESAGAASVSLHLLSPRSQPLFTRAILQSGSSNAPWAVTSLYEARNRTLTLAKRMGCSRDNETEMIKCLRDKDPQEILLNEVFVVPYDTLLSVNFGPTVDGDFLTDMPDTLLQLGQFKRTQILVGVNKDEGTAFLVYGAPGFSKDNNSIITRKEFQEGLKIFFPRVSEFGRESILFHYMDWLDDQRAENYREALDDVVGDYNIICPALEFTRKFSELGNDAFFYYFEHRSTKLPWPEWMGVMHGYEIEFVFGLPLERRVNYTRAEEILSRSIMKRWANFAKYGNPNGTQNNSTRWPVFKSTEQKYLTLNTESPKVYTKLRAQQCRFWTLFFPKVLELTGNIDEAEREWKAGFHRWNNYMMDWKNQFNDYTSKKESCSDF

| Compound | inhibition at 10 µM (eqBuChE) | Papp at 18 h, 25 μg/mL (in vitro) | inhibition at 10 µM (eeAChE; [4]) | Prediction of penetration into CNS [1] | IC50 (eeAChE) | IC50 (hAChE) | inhibition at 25 µM [2] | inhibition at 100 µM [3] | fold less inhibitory activity than compound 4c on AChE (eeAChE; ratio of eeAChE IC50 values) | IC50 (eqBuChE) | eeAChE Inhibition (%) (eeAChE; inhibitor at 10 μM, means ± SD of three experiments, 10 µM) | inhibition at 25 µM ([2]; inhibitor 25 μM, thioflavin-T fluorescence) |
| --- | --- | --- | --- | --- | --- | --- | --- | --- | --- | --- | --- | --- |
| O=c1ccc2ccc(OCCSC(=S)N3CCCCC3)cc2[nH]1 [4a, 2-((2-oxo-1,2-dihydroquinolin-7-yl)oxy)ethyl piperidine-1-carbodithioate] | 16.7 ± 2.36% | 8.57 ± 1.23 ×10⁻⁶ cm/s | 45.3 ± 0.35% | CNS+ (CNS + is predicted as high BBB permeation with Pe (×10^6 cm/s) > 3.33) | – | – | – | – | – | – | – | – |
| O=c1ccc2ccc(OCCCSC(=S)N3CCCCC3)cc2[nH]1 [4b, 3-((2-oxo-1,2-dihydroquinolin-7-yl)oxy)propyl piperidine-1-carbodithioate] | 16.6 ± 4.01% | 8.78 ± 1.11 ×10⁻⁶ cm/s | – | CNS+ (CNS + is predicted as high BBB permeation with Pe (×10^6 cm/s) > 3.33) | 3960 ± 710 nM | – | – | – | – | – | – | – |
| O=c1ccc2ccc(OCCCCCSC(=S)N3CCCCC3)cc2[nH]1 [4d, 5-((2-oxo-1,2-dihydroquinolin-7-yl)oxy)pentyl piperidine-1-carbodithioate] | 20.9 ± 2.61% | 8.82 ± 1.34 ×10⁻⁶ cm/s | – | CNS+ (CNS + is predicted as high BBB permeation with Pe (×10^6 cm/s) > 3.33) | 240 ± 20 nM | 570 ± 10 nM | 26 ± 3.01% | 24.1 ± 3.04% | – | – | – | – |
| O=c1ccc2ccc(OCCCCCCSC(=S)N3CCCCC3)cc2[nH]1 [4e, 6-((2-oxo-1,2-dihydroquinolin-7-yl)oxy)hexyl piperidine-1-carbodithioate] | 17.5 ± 2.17% | 9.85 ± 0.98 ×10⁻⁶ cm/s | – | CNS+ (CNS + is predicted as high BBB permeation with Pe (×10^6 cm/s) > 3.33) | 350 ± 20 nM | 380 ± 20 nM | 25.8 ± 1.43% | 20.3 ± 2.21% | – | – | – | – |
| CC1CCN(C(=S)SCCCCOc2ccc3ccc(=O)[nH]c3c2)CC1 [4f, 4-((2-oxo-1,2-dihydroquinolin-7-yl)oxy)butyl 4-methylpiperidine-1-carbodithio-ate] | 37.2 ± 1.22% | 6.3 ± 0.86 ×10⁻⁶ cm/s | – | CNS+ (CNS + is predicted as high BBB permeation with Pe (×10^6 cm/s) > 3.33) | 690 ± 220 nM | 1210 ± 330 nM | 20.4 ± 3.22% | 12.1 ± 3.18% | 3 fold | – | – | – |
| CC(C)C1CCN(C(=S)SCCCCOc2ccc3ccc(=O)[nH]c3c2)CC1 [4g, 4-((2-oxo-1,2-dihydroquinolin-7-yl)oxy)butyl 4-isopropylpiperidine-1-carbodithi-oate] | 31.4 ± 3.15% | 7.14 ± 1.97 ×10⁻⁶ cm/s | – | CNS+ (CNS + is predicted as high BBB permeation with Pe (×10^6 cm/s) > 3.33) | 9610 ± 1120 nM | – | – | – | – | – | – | – |
| O=c1ccc2ccc(OCCCCSC(=S)N3CCC(N4CCCCC4)CC3)cc2[nH]1 [4h, 4-((2-oxo-1,2-dihydroquinolin-7-yl)oxy)butyl [1,4′-bipiperidine]-1′-carbodithio-ate] | – | 6.42 ± 1.02 ×10⁻⁶ cm/s | – | CNS+ (CNS + is predicted as high BBB permeation with Pe (×10^6 cm/s) > 3.33) | 3800 ± 350 nM | – | – | – | – | 2000 ± 230 nM | – | – |
| O=c1ccc2ccc(OCCCCSC(=S)N3CCC(O)CC3)cc2[nH]1 [4i, 4-((2-oxo-1,2-dihydroquinolin-7-yl)oxy)butyl 4-hydroxypiperidine-1-carbodithio-ate] | 15.8 ± 2.45% | 2.83 ± 0.65 ×10⁻⁶ cm/s | 20.2 ± 3.27% | CNS± (CNS ± is uncertain for BBB permeation with 1.51 < Pe (×10^6 cm/s) < 3.33) | – | – | – | – | – | – | – | – |
| O=c1ccc2ccc(OCCCCSC(=S)N3CCC(CO)CC3)cc2[nH]1 [4j, 4-((2-oxo-1,2-dihydroquinolin-7-yl)oxy)butyl 4-(hydroxymethyl)piperidine-1-ca-rbodithioate] | 23.9 ± 2.03% | 3.25 ± 0.82 ×10⁻⁶ cm/s | 14.5 ± 2.44% | CNS± (CNS ± is uncertain for BBB permeation with 1.51 < Pe (×10^6 cm/s) < 3.33) | – | – | – | – | – | – | – | – |
| CN1CCN(C(=S)SCCCCOc2ccc3ccc(=O)[nH]c3c2)CC1 [4k, 4-((2-oxo-1,2-dihydroquinolin-7-yl)oxy)butyl 4-methylpiperazine-1-car-bodithioate] | 28.6 ± 3.44% | 4.54 ± 0.84 ×10⁻⁶ cm/s | 23.1 ± 5.54% | CNS+ (CNS + is predicted as high BBB permeation with Pe (×10^6 cm/s) > 3.33) | – | – | – | – | – | – | – | – |
| O=c1ccc2ccc(OCCCCSC(=S)N3CCOCC3)cc2[nH]1 [4l, 4-((2-oxo-1,2-dihydroquinolin-7-yl)oxy)butyl morpholine-4-carbodithioate] | 30.5 ± 4.11% | 7.35 ± 1.05 ×10⁻⁶ cm/s | 12.3 ± 1.76% | CNS+ (CNS + is predicted as high BBB permeation with Pe (×10^6 cm/s) > 3.33) | – | – | – | – | – | – | – | – |
| O=c1ccc2ccc(OCCCCSC(=S)N3CCCC3)cc2[nH]1 [4m, 4-((2-oxo-1,2-dihydroquinolin-7-yl)oxy)butyl pyrrolidine-1-carbodithioate] | 7.63 ± 0.92% | 10 ± 2.63 ×10⁻⁶ cm/s | < 50% | CNS+ (CNS + is predicted as high BBB permeation with Pe (×10^6 cm/s) > 3.33) | – | – | – | – | – | – | 31.43 ± 1.65% | – |
| Cc1cc(=O)[nH]c2cc(OCCCCSC(=S)N3CCCCC3)ccc12 [9a, 4-((4-methyl-2-oxo-1,2-dihydroquinolin-7-yl)oxy)butylpiperidine-1-carbodithioate] | 18.3 ± 3.15% | 8.79 ± 2.1 ×10⁻⁶ cm/s | – | CNS+ (CNS + is predicted as high BBB permeation with Pe (×10^6 cm/s) > 3.33) | 300 ± 120 nM | 760 ± 100 nM | 33.4 ± 4.85% | 14.2 ± 2.85% | – | – | – | – |
| Cc1c(C)c2ccc(OCCCCSC(=S)N3CCCCC3)cc2[nH]c1=O [9b, 4-((3,4-dimethyl-2-oxo-1,2-dihydroquinolin-7-yl)oxy)butylpiperidine-1-carbodithioate] | 21.2 ± 1.6% | 8.67 ± 1.76 ×10⁻⁶ cm/s | – | CNS+ (CNS + is predicted as high BBB permeation with Pe (×10^6 cm/s) > 3.33) | 340 ± 10 nM | 390 ± 10 nM | 35.3 ± 2.17% | 24.4 ± 3.03% | – | – | – | – |
| COc1cc(/C=C/C(=O)CC(=O)/C=C/c2ccc(O)c(OC)c2)ccc1O [Curcumin, reference compound] | – | – | – | – | – | – | – | – | – | – | – | 37.3 ± 2.76% |
| CC(=O)[C@H]1CC[C@H]2[C@@H]3CCC4=CC(=O)CC[C@]4(C)[C@H]3CC[C@]12C [Progesterone, reference compound] | – | 10.4 ± 1.9 ×10⁻⁶ cm/s | – | – | – | – | – | – | – | – | – | – |
